The record followed here is ChEMBL document CHEMBL1201862, “PubChem BioAssay data set” (2004).

What all share (test): DTP human tumour cell line panel, 48 h
The subject of experiment [1] is SNB-75.
Experiment [2] has as its system M14.
For experiment [3], the system named is CCRF-CEM.
In experiment [4] the test system is HOP-92.
The subject of experiment [5] is HOP-62.
In experiment [6] the test system is SR.
Experiment [7] concerns K562.
Experiment [8] deals with NCI-H23.
Experiment [9] concerns MOLT-4.
The subject of experiment [10] is EKVX.
Experiment [11] concerns SF-539.
For experiment [12], the system named is COLO 205.
In experiment [13] the test system is SK-MEL-5.
In experiment [14] the test system is SF-295.
For experiment [15], the system named is A498.
The subject of experiment [16] is OVCAR-5.
In experiment [17] the test system is UACC-257.

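A five-concentration, 48-hour dose response in 96-well plates underlies each endpoint, interpolated linearly between surrounding concentrations. The concentration for 50% growth inhibition is given as GI50.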 Active and inactive are the calls of the source. No stated cut-off is given here; in the data, active = GI50 up to about 1.1 µM and inactive = higher.

Regarding `Oc1cc(-c2ccc3c(c2)OCO3)nc2cc3c(cc12)OCO3`, the GI50 in experiment [1] was 1.01 µM (active); in experiment [2] it was 27.9 µM (inactive); in [3], 31.7 µM (inactive); in experiment [4] it was > 100 µM (inactive); in [5], 22.9 µM (inactive); in experiment [6], 6.35 µM (inactive). For the same molecule, the GI50 in experiment [7] was 28.8 µM (inactive); in experiment [8], 32.4 µM (inactive); in experiment [9], 59.8 µM (inactive); in [10] it was > 100 µM (inactive); in experiment [11] it was 23 µM (inactive); in experiment [12], 31.5 µM (inactive).

Consider `C=CCNC(=O)NCCCCC(NC(C)=O)C(=O)NCc1ccccc1` (stereo not given), for which the GI50 in [13], in experiment [1], in [2], in experiment [3], in experiment [4] and in experiment [5] was > 100 µM (inactive) in each case. The GI50 in experiment [7], in experiment [8], in [9], in experiment [10], in experiment [14] and in [15] was > 100 µM (inactive) in each case. For the same molecule, the GI50 in experiment [11], in experiment [12], in [16] and in [17] was > 100 µM (inactive) throughout.

As for `COc1ccc2c(c1)Oc1cc(O)ccc1[C@@H]2c1ccccc1C(=O)NC(C)c1ccccc1` (stereo not given in full), the GI50 in experiment [13] was 17.7 µM (inactive); in [1], 14.7 µM (inactive); in experiment [2] it was 12.2 µM (inactive); in [3], 15.8 µM (inactive); in experiment [5], 15.3 µM (inactive); in [7], 14.8 µM (inactive). In addition, the GI50 in [8] was 16.1 µM (inactive); in experiment [9], 5.73 µM (inactive); in experiment [10], 13.3 µM (inactive); in experiment [14], 13 µM (inactive); in experiment [15], 17.7 µM (inactive); in experiment [11] it was 16.3 µM (inactive). Further, the GI50 is 16.4 µM (inactive) in experiment [12], 16.4 µM (inactive) in [16] and 14.8 µM (inactive) in experiment [17].

On to `CCOC(=O)C1=C(C)N(NC(N)=O)C2(N)N(NC(N)=O)C(C)=C(C(=O)OCC)C12C#N` (stereo not given), for which the GI50 in [13], in [1], in experiment [2], in experiment [5], in [6] and in experiment [7] was > 100 µM (inactive) in each case. Further, the GI50 in [9], in [10], in experiment [14], in experiment [15], in [11] and in experiment [16] was > 100 µM (inactive) in each case. The GI50 in experiment [17] is > 100 µM (inactive).

Turning to `O=C(O)CNS(=O)(=O)c1ccc(NC(=O)CI)cc1`, the GI50 is 22.2 µM (inactive) in [13]; 17.1 µM (inactive) in [1]; 18.6 µM (inactive) in experiment [2]; 2.33 µM (inactive) in experiment [3]; 19.4 µM (inactive) in experiment [4]; 10.2 µM (inactive) in experiment [7]. Further, the GI50 in experiment [8] was 18.3 µM (inactive); in experiment [9] it was 12.1 µM (inactive); in [10] it was 32.7 µM (inactive); in experiment [14] it was 26.3 µM (inactive); in [15], > 100 µM (inactive); in experiment [11] it was 16.1 µM (inactive). Moreover, the GI50 is 26.2 µM (inactive) in experiment [12], 27.6 µM (inactive) in experiment [16] and 42.5 µM (inactive) in experiment [17].

As for `O=[N+]([O-])c1cnn(C2=CNc3ccccc3N=C2)c1`, the GI50 in experiment [1] is 43.8 µM (inactive); in [3] it was > 100 µM (inactive); in experiment [4], > 100 µM (inactive); in [5], > 100 µM (inactive); in [6], > 100 µM (inactive); in [8], > 100 µM (inactive). The GI50 in experiment [9], in experiment [10], in [14], in experiment [11], in experiment [12] and in [16] was > 100 µM (inactive) in each case. Besides, the GI50 in experiment [17] was > 100 µM (inactive).

Turning to `O=C1CC[C@@H](S(=O)(=O)c2ccccc2)[C@@H](/C=C/c2ccccc2)O1`, the GI50 in experiment [13], in experiment [1], in experiment [2], in experiment [3], in experiment [5] and in experiment [6] was > 100 µM (inactive) throughout. In addition, the GI50 in experiment [7], in experiment [8], in [9], in experiment [10], in experiment [14] and in experiment [15] was > 100 µM (inactive) each time. Besides, the GI50 in [11], in [12], in [16] and in experiment [17] was > 100 µM (inactive) each time.

Consider `Cc1ccc2c(ccc(/C=C\c3cc(C)c4cccnc4c3O)[n+]2C)c1`, for which the GI50 in experiment [13] was 0.372 µM (active); in [2], 0.664 µM (active); in experiment [3], 0.796 µM (active); in experiment [5] it was 5.5 µM (inactive); in experiment [6], 2.12 µM (inactive); in [7] it was 0.385 µM (active). Further, the GI50 in experiment [8] was 2.67 µM (inactive); in experiment [9], 1.05 µM (active); in experiment [10], 15.9 µM (inactive); in [14], 10 µM (inactive); in experiment [15] it was 14.6 µM (inactive); in experiment [11], 1.64 µM (inactive). For the same molecule, the figures for the GI50 in experiment [12], in experiment [16] and in [17] were 9.89 µM (inactive), 22 µM (inactive) and 11.7 µM (inactive), respectively.

Take `COC(=O)C1=C(C[S+]([O-])c2ccc([N+](=O)[O-])cc2[N+](=O)[O-])C2C=CC1C2` (stereo not given): the GI50 in experiment [13] was 63.2 µM (inactive); in experiment [1], 25.3 µM (inactive); in [2], 42.6 µM (inactive); in experiment [3], 11.8 µM (inactive); in [5], > 100 µM (inactive); in [7] it was 19 µM (inactive). For the same molecule, the GI50 was 26.4 µM (inactive) in [8]; 22.2 µM (inactive) in experiment [9]; 23.6 µM (inactive) in [10]; 65 µM (inactive) in experiment [14]; > 100 µM (inactive) in [15]; 24.3 µM (inactive) in experiment [11]. Moreover, the GI50 in experiment [12] is 19.2 µM (inactive); in experiment [16], > 100 µM (inactive); in [17] it was 30.2 µM (inactive).

Regarding `CC(=O)NC1=C(Nc2ccc(C)cc2)C(=O)c2ccccc2C1=O`, the GI50 was 10.2 µM (inactive) in [13]; 11.6 µM (inactive) in experiment [1]; 13.5 µM (inactive) in experiment [2]; 17.1 µM (inactive) in experiment [3]; 17.1 µM (inactive) in experiment [5]; 18.2 µM (inactive) in experiment [7]. For the same molecule, the GI50 in experiment [8] was 8.02 µM (inactive); in [9], 16.7 µM (inactive); in experiment [10], > 75 µM (inactive); in experiment [14] it was 18.2 µM (inactive); in [15] it was 50.2 µM (inactive); in [11], 16.2 µM (inactive). The GI50 in experiment [12] is 18.7 µM (inactive); in [16], 13.3 µM (inactive); in experiment [17], 18 µM (inactive).

With `CCOC(=O)/C(C)=C(/O)C(=O)OCC`, the GI50 in [13], in experiment [1], in experiment [2], in [3], in experiment [4] and in experiment [5] was > 100 µM (inactive) in each case. Moreover, the GI50 in experiment [7], in [8], in experiment [9], in experiment [10], in [14] and in experiment [15] was > 100 µM (inactive) throughout. Moreover, the GI50 in experiment [11], in [12], in [16] and in experiment [17] was > 100 µM (inactive) in each case.

Take `COC1O[C@@H]2COC(C)(C)O[C@@H]2C(=O)N1Nc1ccc([N+](=O)[O-])cc1` (stereo not given in full): the GI50 was > 100 µM (inactive) in experiment [13]; > 100 µM (inactive) in experiment [1]; > 100 µM (inactive) in [2]; > 10 µM (inactive) in experiment [3]; > 100 µM (inactive) in experiment [4]; > 100 µM (inactive) in experiment [5]. Also, the GI50 in [7], in [8], in [9], in experiment [10], in experiment [14] and in experiment [15] was > 100 µM (inactive) throughout. Moreover, the GI50 in experiment [11], in experiment [12], in [16] and in experiment [17] was > 100 µM (inactive) in each case.

In the case of `COC(=O)[C@@]12C3=NO[C@]1(C(=O)OC)C(O[Si](C)(C)C(C)(C)C)C1OC(C)(C)OC1[C@@H]2[C@@H](OCc1ccccc1)CC3` (stereo not given in full), the GI50 in [13] was 85.5 µM (inactive); in experiment [1], 9.66 µM (inactive); in [2] it was 43.9 µM (inactive); in experiment [3], > 100 µM (inactive); in experiment [4], 4.4 µM (inactive); in [7], 8.93 µM (inactive). In addition, the GI50 in experiment [8] was 58.7 µM (inactive); in experiment [9], 7.52 µM (inactive); in [10], > 100 µM (inactive); in experiment [14] it was > 100 µM (inactive); in [15] it was > 100 µM (inactive); in experiment [11], > 100 µM (inactive). In experiment [12], the GI50 was 83.8 µM (inactive).
